Results taken from PubChem BioAssay AID540269 (Sanford-Burnham Center for Chemical Genomics, 2011).
pIC50: −log10 of the molar value. Activity calls are given as the source filed them. No rule for the calls is given here.

biological target: glucose-6-phosphate dehydrogenase-6-phosphogluconolactonase (Plasmodium falciparum 3D7); test: inhibition of P. falciparum G6PD activity – biochemical, kinetic NADPH detection, orthogonal assay, dose response (AID 540269); settings: purified PfG6PD-6PGL

Structure (SMILES) | IC50 | pIC50
O=C(OCC(=O)c1ccc([N+](=O)[O-])cc1)/C(=C\c1ccc(Cl)cc1)NC(=O)c1ccccc1 | > 80 µM (inactive) | 
COc1ccc(S(=O)(=O)/N=C2\C=C(Nc3ccc(O)cc3)C(=O)c3ccccc32)cc1 | > 80 µM (inactive) | 
COc1cc(N)c2ncccc2c1OC | > 80 µM (inactive) | 
CCn1c(N)c(C(=O)NC)sc1=S |  | 4.58
CCN1/C(=C/C=C/C=C/C=C/c2sc3ccccc3[n+]2CC)Sc2ccccc21 | > 80 µM (inactive) | 
CCC(=O)OCCNc1cc(Sc2nc3ccccc3s2)c2nonc2c1[N+](=O)[O-] | > 80 µM (inactive) | 
COc1ccc(CNC(=O)Cc2cn(C)c3ccccc23)c(OC)c1 | > 80 µM (inactive) | 
CN1CCN(C(=O)c2sc(=S)n(-c3ccccc3)c2N)CC1 |  | 4.30
Oc1ccc(NCc2ccccc2OCc2ccccc2)cc1 |  | 4.27
Cc1cc(O)c(C(C)C)cc1N=Cc1ccc([N+](=O)[O-])cc1 | > 80 µM (inactive) | 
COc1cc(CN2CCCC(C(=O)c3ccc4c5c(cccc35)CC4)C2)cc(OC)c1O (configuration not stated) |  | 4.55
Clc1ccc2nc(-c3ccc4c(c3)OCO4)cn2c1 |  | 4.39
COc1ccc(N2C(=O)/C(=C/c3cccs3)NC2=S)cc1 |  | 4.40
Nc1ccc2c3c(cccc13)-c1ccccc1-2 |  | 4.38
CC(C)c1nnc(NC(=O)c2cccc(-n3cnnn3)c2)s1 |  | 4.56
O=C(Nc1ccc(N2CCCC2)cc1)c1cccc(-c2cc3ccccc3oc2=O)c1 | > 80 µM (inactive) | 
CC(=O)Nc1ccc2sn(-c3ccccc3)c(=O)c2c1 |  | 4.62
COCCn1nnnc1C(c1cc2cc(OC)c(OC)cc2[nH]c1=O)N1CCN(c2ccc(O)cc2)CC1 (configuration not stated) |  | 4.52
C[C@]12CC[C@@H]3c4ccc(O)c(O)c4CC[C@H]3[C@@H]1CC[C@@H]2O |  | 4.38
COC1=C(Br)C(=O)c2nc(C)ccc2C1=O | > 80 µM (inactive) | 
Cc1cccc(OCC(=O)NCC(=O)N/N=C/c2ccccc2)c1 | > 80 µM (inactive) | 
COc1ccc(CCn2c(NN)nc3c2c(=O)[nH]c(=O)n3C)cc1 |  | 4.65

Structure (SMILES) | IC50 | pIC50
COc1cc(NCCCn2cnc3c(OCc4ccccc4)ncnc32)cc(OC)c1OC | > 80 µM (inactive) | 
CCCCC1C(=O)N(c2ccccc2)N(c2ccc(O)cc2)C1=O (configuration not stated) | > 80 µM (inactive) | 
COc1ccc(CCn2c(NN=C(C)C)nc3c2c(=O)[nH]c(=O)n3C)cc1 | > 80 µM (inactive) | 
N#Cc1ccc2c(=O)n(-c3ccccc3)sc2c1 |  | 4.40
CCC(c1ccc(O)c(O)c1)C(CC)c1ccc(O)c(O)c1 (configuration not stated) | > 80 µM (inactive) | 
NS(=O)(=O)c1ccc(N/N=C/c2ccc(O)c(O)c2O)c([N+](=O)[O-])c1 | > 80 µM (inactive) | 
Cc1ccc(S(=O)(=O)Oc2cccc(/C=N/Nc3ccc(C(=O)O)cc3)c2)cc1 |  | 4.38
O=C(COC(=O)c1ccc2c(c1[N+](=O)[O-])C(=O)c1ccccc1C2=O)NC1CC1 | > 80 µM (inactive) | 
Cc1ccc(-c2c(C(=O)N/N=C/c3ccc(C)o3)nnn2-c2nonc2N)cc1 |  | 4.29
O=S(=O)(NCc1csc(-c2ccccc2)n1)c1ccc(Cl)s1 | > 80 µM (inactive) | 
COC(=O)CCC(=O)Nc1sc(Cc2ccccc2)c(C)c1C(N)=O |  | 4.45
C[C@H](NC(N)=O)C(=O)Nc1ccc(N2CCOCC2)c(S(=O)(=O)Nc2ccc(Cl)cc2)c1 | > 80 µM (inactive) | 
COc1ccc(-n2c(=S)[nH]c3c(sc(=S)n3-c3ccccc3)c2=O)c(OC)c1 | > 80 µM (inactive) | 
CCN1CCCC1CNC(=O)c1ccc2c(c1)NC(=O)/C(=C\c1ccccc1F)S2 (configuration not stated) |  | 5.06
CCn1c2ccccc2c2nc3cc(S(=O)(=O)N4CCOCC4)ccc3nc21 | > 80 µM (inactive) | 
O=C1C(=Cc2cccc(O)c2O)SC(=S)N1CCCN1CCOCC1 |  | 4.55
O=C(Nc1ccccc1C(=O)N/N=C/c1ccco1)c1ccccc1Cl | > 80 µM (inactive) | 
O=C1C(Cl)=C(NCCc2ccccc2)C(=O)c2ccccc21 |  | 4.15
CCN(CC)CCn1c2ccccc2c(=O)c2c(O)ccc(O)c21 |  | 4.48
Brc1cc2[nH]cnc2c2ccccc12 | > 80 µM (inactive) | 
O=C1C=C(NCCc2cc(Br)c(O)c(Br)c2)C(=O)c2ncccc21 | > 80 µM (inactive) | 
COc1ccc(N2CSC3=C(C#N)C(c4ccc(OC)c(OC)c4)CC(=O)N3C2)c(OC)c1 (configuration not stated) | > 80 µM (inactive) | 

Structure (SMILES) | IC50 | pIC50
C=CCOc1c(Cl)cc(CNc2ccc(N(C)C)cc2)cc1OC |  | 4.21
Cn1c2ccccc2c2ccc3c(c21)C(=O)C=CC3=O |  | 5.74
COc1cc(N)c2ncccc2c1SC |  | 4.41
Cc1ccc2nc3sc(C(=O)N4CCOCC4)c(N)c3cc2c1 |  | 4.43
CCOC(=O)c1sc(NC(=O)CSc2nnc(Cc3ccccc3)o2)c(C#N)c1C | > 80 µM (inactive) | 
Nc1c(C(=O)Nc2ccc(F)cc2)sc(=S)n1-c1ccccc1F | > 80 µM (inactive) | 
CN=c1scc(C)n1/N=C/c1ccc(O)c(O)c1O |  | 4.61
Cc1ccsc1/C=N/NC(=O)c1cccc(S(=O)(=O)Nc2ccccc2Cl)c1 | > 80 µM (inactive) | 
CC1N(C)c2cccc3cccc(c23)N1C |  | 4.71
Cc1ccc(S(=O)(=O)N(C)C)cc1NC(=O)CSc1nc2ncc(Cl)cc2[nH]1 | > 80 µM (inactive) | 
CCNc1cc2c(cc1O)CCC1C2CCC2(C)C(O)CCC12 (configuration not stated) |  | 4.45
CCn1c2ccccc2c2cc(/C=N/n3cn[nH]c3=S)ccc21 |  | 5.04
O=C(CCc1ccc(S(=O)(=O)N2CCOCC2)cc1)N/N=C/c1ccc(O)c(O)c1O |  | 4.44
Cc1ccc(S(=O)(=O)/N=C2/C=C(C3C(=O)CC(C)(C)CC3=O)C(=O)c3ccccc32)cc1 | > 80 µM (inactive) | 
CCC(=O)OCOc1ccc(/C=C2/CCC(CN(C)C)C2=O)cc1 (configuration not stated) |  | 4.44
O=C(Nc1nnc(S(=O)(=O)N2CCCC2)s1)c1cccc([N+](=O)[O-])c1 | > 80 µM (inactive) | 
O=C(Nc1sc2c(c1C(=O)O)CCC2)c1ccc(F)cc1 |  | 4.38
COc1ccc(N=C2C(=S)N(c3ccc(OC)cc3)C(=NS(=O)(=O)c3ccccc3)N2c2ccccc2)cc1 | > 80 µM (inactive) | 
Clc1cccc(Cl)c1CNc1ccc(N2CCCC2)cc1 |  | 4.22
CN1C(=O)CSc2ccc(NC(=O)N3CCc4ccccc43)cc21 | > 80 µM (inactive) | 
COc1cc(NCc2ccccc2O)c2ncccc2c1 |  | 4.46
OCc1ccccc1SSc1ccccc1CO |  | 4.27

Structure (SMILES) | IC50 | pIC50
Cc1ccc(S(=O)(=O)SC/C=C/CSS(=O)(=O)c2ccc(C)cc2)cc1 |  | 4.14
COc1cc(O)c(C(=O)O)c(-c2cc(O)c(O)cc2C)c1 |  | 4.71
CC1=C(C)CS(=O)N(S(=O)(=O)c2ccc(Cl)cc2)C1 (configuration not stated) | > 80 µM (inactive) | 
CCCN1CCc2cc(O)cc3c2[C@H]1Cc1ccc(O)c(O)c1-3 | > 80 µM (inactive) | 
CCCCOc1ccc(Cc2n[nH]c(=S)n2N)cc1 | > 80 µM (inactive) | 
CC(=O)Nc1ccc(S(=O)(=O)NNc2cccc(C)c2)cc1 | > 80 µM (inactive) | 
Oc1ccc(/C=N/N=C(c2ccccc2)c2ccccc2)c(O)c1O |  | 4.26
CC1(C)Cc2c(sc3nc4n(-c5ccccc5)c(=O)c(CCC(=O)O)nn4c(=O)c23)CO1 |  | 4.93
CNCc1ccccc1Sc1cc(O)ccc1O |  | 4.26
Cc1ccc(C(=O)Nc2nnc(S(=O)(=O)N3CCC(C)CC3)s2)cc1 |  | 4.62
[O-]/[N+](=C/c1cccnc1)c1ccc(Br)cc1 |  | 4.11
O=c1c2ccccc2sn1-c1ccccc1 |  | 5.01
O=C(CCC(=O)Nc1ccccc1Cl)N/N=C/c1ccccc1 | > 80 µM (inactive) | 
CCOc1ccccc1NS(=O)(=O)c1c(C)noc1C | > 80 µM (inactive) | 
COc1c(O)c(O)c2oc(-c3ccccc3)cc(=O)c2c1OC |  | 4.17
CCOC(=O)c1c(OCC)[nH]c2c1cc(O)c1ccccc12 | > 80 µM (inactive) | 
ClC(Cl)(c1nnnn1-c1ccccc1)c1nnnn1-c1ccccc1 |  | 4.21
O=C(COC(=O)c1cnccn1)c1ccc([N+](=O)[O-])cc1 | > 80 µM (inactive) | 
O=C1/C(=C\c2ccc([N+](=O)[O-])cc2)CS(=O)(=O)C/C1=C/c1ccc([N+](=O)[O-])cc1 | > 80 µM (inactive) | 
COc1ccc(S(=O)(=O)Nc2cc(SCC(=O)O)c(O)c3ccccc23)cc1 |  | 4.35
Cc1ccccc1OCC(=O)NCC(=O)OCC(=O)c1ccc([N+](=O)[O-])cc1 |  | 4.17
O=C1Nc2cc(C(=O)NCCCN3CCCC3)ccc2S/C1=C\c1ccccc1 |  | 4.65

Structure (SMILES) | IC50 | pIC50
CCc1ccc(S(=O)(=O)Nc2cc(SCC(=O)O)c(O)c3ccccc23)cc1 |  | 4.35
CCCNC(=O)Cn1sc2nc(C)cc(C)c2c1=O |  | 4.29
O=C(Nc1ccccn1)c1sc2cc([N+](=O)[O-])ccc2c1Cl | > 80 µM (inactive) | 
COCc1cc(=O)n2[nH]c(C(C)(C)C)cc2n1 |  | 4.36
Fc1cccc(Cl)c1CNc1ccc(N2CCCC2)cc1 | > 80 µM (inactive) | 
C=CCOc1ccc(CNc2ccc3[nH]c(=O)[nH]c3c2)cc1OC | > 80 µM (inactive) | 
CCC(C)(C)c1nnc(NC(=O)C2CCN(C(=O)c3ccco3)CC2)s1 | > 80 µM (inactive) | 
O=C(NC1=CC(=O)c2ccccc2C1=O)c1ccccc1 |  | 4.42
CN(C)c1ccc(Cc2cc3c(O)ccc(O)c3cc(Cc3ccc(N(C)C)cc3)c2=O)cc1 |  | 4.26
CCOC(=O)c1cnc2ccc(C)cc2c1Sc1ccccc1C(=O)OC | > 80 µM (inactive) | 
COc1c2ccoc2c(OCC=C(C)C)c2oc(=O)ccc12 | > 80 µM (inactive) | 
O=C(CNC(=O)c1cccs1)OCC(=O)c1ccc([N+](=O)[O-])cc1 | > 80 µM (inactive) | 
CC(=O)OCCCNc1cc(Sc2nc3ccccc3s2)c2nonc2c1[N+](=O)[O-] |  | 4.83
COC1(OC)C=CC(=O)C=C1NC(=O)c1ccccc1OC(C)=O | > 80 µM (inactive) | 
CCn1c(SCc2nc3scc(-c4ccccc4)c3c(=O)[nH]2)nnc1-c1cccs1 |  | 4.24
Cn1c(-c2sccc2OCc2cccc(C(F)(F)F)c2)n[nH]c1=S |  | 5.14
COc1cc(N(C)C)ccc1C=c1c2ccccc2n2c1cc(-c1ccccc1)[n+]2C | > 80 µM (inactive) | 
O=C(Nc1nnc(S(=O)(=O)N2CCCCC2)s1)c1ccc(Cl)cc1 |  | 4.59
COC1=CC(=O)C=C(OC)C1(O)CC(C)=O | > 80 µM (inactive) | 
